Reference: the kinase profiling compilation of Christmann-Franck et al. (2016)
pKd: −log10 of the molar value.

Experiments:
Assay in all cases: KINOMEscan competition binding
[1] = target: ABL1 (human), P00519 [Y253F]
FER (human) = FER (human) (UniProt P16591)
NTRK3 (human) = NTRK3 (human) (UniProt Q16288)
SIK2 (human) = SIK2 (human) (UniProt Q9H0K1)
CSK (human) = CSK (human) (UniProt P41240)
MAPK9 (human) = MAPK9 (human) (UniProt P45984)
CDK8 (human) = CDK8 (human) (UniProt P49336)
ROS1 (human) = ROS1 (human) (UniProt P08922)
STK25 (human) = STK25 (human) (UniProt O00506)
BLK (human) = BLK (human) (UniProt P51451)
RIOK2 (human) = RIOK2 (human) (UniProt Q9BVS4)
PTK6 (human) = PTK6 (human) (UniProt Q13882)
PTK6 (human), sequence (Q13882 whole entry, looked up): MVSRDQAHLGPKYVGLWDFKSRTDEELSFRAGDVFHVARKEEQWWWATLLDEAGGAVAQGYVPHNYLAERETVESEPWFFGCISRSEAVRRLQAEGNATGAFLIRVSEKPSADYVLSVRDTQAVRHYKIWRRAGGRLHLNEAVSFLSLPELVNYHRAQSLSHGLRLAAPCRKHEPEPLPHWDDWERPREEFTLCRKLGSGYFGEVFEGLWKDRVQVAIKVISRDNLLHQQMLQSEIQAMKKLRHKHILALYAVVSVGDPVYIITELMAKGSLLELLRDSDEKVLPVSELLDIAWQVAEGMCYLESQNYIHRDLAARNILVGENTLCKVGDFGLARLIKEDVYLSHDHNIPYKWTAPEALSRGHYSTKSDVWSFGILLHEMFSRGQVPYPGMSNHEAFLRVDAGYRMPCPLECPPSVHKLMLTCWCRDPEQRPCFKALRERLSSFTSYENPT

ADCK4 (human) = ADCK4 (human) (UniProt Q96D53)
ADCK4 (human), sequence (Q96D53 whole entry, looked up): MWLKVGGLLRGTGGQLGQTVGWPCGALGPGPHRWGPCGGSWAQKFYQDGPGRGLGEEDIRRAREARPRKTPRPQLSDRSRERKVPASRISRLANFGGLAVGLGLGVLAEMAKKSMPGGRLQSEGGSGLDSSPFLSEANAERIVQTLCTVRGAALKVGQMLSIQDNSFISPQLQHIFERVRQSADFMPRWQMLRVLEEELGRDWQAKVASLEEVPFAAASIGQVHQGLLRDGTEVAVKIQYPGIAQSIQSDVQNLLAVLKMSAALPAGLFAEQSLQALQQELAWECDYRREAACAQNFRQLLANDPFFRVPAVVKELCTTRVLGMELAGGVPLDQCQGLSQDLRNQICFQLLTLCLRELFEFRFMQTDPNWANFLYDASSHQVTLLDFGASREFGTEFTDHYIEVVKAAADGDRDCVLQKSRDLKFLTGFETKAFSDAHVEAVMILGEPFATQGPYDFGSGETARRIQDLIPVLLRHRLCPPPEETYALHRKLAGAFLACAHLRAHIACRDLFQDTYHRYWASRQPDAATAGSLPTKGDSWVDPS

FGFR4 (human) = FGFR4 (human) (UniProt P22455)
DDR2 (human) = DDR2 (human) (UniProt Q16832)
DDR2 (human), sequence (Q16832 whole entry, looked up): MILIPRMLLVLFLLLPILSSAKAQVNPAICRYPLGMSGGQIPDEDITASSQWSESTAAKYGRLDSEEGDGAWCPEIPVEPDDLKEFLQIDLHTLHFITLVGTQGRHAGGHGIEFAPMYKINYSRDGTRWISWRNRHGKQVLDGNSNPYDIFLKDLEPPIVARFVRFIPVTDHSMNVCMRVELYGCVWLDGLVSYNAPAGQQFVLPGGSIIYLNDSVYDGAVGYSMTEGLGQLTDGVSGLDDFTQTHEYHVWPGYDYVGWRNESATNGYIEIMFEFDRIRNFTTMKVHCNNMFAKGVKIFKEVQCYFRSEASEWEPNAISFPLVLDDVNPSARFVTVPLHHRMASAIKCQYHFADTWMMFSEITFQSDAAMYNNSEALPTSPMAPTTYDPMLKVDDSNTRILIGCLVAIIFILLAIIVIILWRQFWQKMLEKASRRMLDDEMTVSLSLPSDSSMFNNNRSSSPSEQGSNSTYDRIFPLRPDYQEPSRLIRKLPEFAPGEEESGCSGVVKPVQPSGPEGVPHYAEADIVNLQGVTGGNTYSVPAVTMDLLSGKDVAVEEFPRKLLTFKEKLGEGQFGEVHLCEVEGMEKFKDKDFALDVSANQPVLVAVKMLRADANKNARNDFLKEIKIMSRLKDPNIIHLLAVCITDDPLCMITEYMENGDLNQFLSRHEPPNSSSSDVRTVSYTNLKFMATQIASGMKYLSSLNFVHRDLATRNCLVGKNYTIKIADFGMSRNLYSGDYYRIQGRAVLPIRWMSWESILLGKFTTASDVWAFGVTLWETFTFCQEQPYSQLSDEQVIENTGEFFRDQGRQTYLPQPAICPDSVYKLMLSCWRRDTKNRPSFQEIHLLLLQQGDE

IRAK3 (human) = IRAK3 (human) (UniProt Q9Y616)
EPHB1 (human) = EPHB1 (human) (UniProt P54762)
MYO3A (human) = MYO3A (human) (UniProt Q8NEV4)
MLTK (human) = MLTK (human) (UniProt Q9NYL2)
EPHA6 (human) = EPHA6 (human) (UniProt Q9UF33)
LYN (human) = LYN (human) (UniProt P07948)
MATK (human) = MATK (human) (UniProt P42679)
DYRK2 (human) = DYRK2 (human) (UniProt Q92630)
MAPK13 (human) = MAPK13 (human) (UniProt O15264)
HIPK3 (human) = HIPK3 (human) (UniProt Q9H422)
STK35 (human) = STK35 (human) (UniProt Q8TDR2)
STK35 (human), sequence (Q8TDR2 whole entry, looked up): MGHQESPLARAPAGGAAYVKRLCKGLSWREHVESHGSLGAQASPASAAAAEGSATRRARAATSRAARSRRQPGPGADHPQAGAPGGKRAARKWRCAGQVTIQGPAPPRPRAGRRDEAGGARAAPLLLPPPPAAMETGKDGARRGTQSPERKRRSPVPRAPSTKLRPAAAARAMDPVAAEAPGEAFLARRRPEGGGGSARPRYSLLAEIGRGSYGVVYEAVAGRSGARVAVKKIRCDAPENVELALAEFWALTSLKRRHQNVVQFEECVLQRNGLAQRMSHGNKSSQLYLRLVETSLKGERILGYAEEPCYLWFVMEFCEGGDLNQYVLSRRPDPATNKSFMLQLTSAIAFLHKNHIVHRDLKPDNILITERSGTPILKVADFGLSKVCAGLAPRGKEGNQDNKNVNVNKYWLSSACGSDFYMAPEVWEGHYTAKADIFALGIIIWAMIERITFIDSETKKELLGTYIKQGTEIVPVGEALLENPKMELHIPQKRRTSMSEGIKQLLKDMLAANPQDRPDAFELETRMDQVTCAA

TSSK1B (human) = TSSK1B (human) (UniProt Q9BXA7)
FYN (human) = FYN (human) (UniProt P06241)
MYLK3 (human) = MYLK3 (human) (UniProt Q32MK0)
EPHA3 (human) = EPHA3 (human) (UniProt P29320)
[2] = target: PIK3CA (human), P42336 [H1047Y]
TEC (human) = TEC (human) (UniProt P42680)
STK10 (human) = STK10 (human) (UniProt O94804)
CDK7 (human) = CDK7 (human) (UniProt P50613)
MAPK11 (human) = MAPK11 (human) (UniProt Q15759)
MAPK11 (human), sequence (Q15759 whole entry, looked up): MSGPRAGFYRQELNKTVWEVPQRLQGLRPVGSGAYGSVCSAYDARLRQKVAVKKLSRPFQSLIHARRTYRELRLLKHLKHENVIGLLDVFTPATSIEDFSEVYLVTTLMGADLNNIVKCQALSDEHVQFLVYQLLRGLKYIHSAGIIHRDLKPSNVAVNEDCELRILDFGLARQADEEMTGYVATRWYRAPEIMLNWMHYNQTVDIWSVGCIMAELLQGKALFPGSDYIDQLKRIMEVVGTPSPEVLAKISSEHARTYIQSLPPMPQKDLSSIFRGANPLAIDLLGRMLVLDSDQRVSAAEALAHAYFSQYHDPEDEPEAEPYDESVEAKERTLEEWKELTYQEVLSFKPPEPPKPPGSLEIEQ

MAP2K2 (human) = MAP2K2 (human) (UniProt P36507)
PIK3CG (human) = PIK3CG (human) (UniProt P48736)
MAP4K2 (human) = MAP4K2 (human) (UniProt Q12851)
CDC42BPB (human) = CDC42BPB (human) (UniProt Q9Y5S2)
CDKL5 (human) = CDKL5 (human) (UniProt O76039)
HUNK (human) = HUNK (human) (UniProt P57058)
HUNK (human), sequence (P57058 whole entry, looked up): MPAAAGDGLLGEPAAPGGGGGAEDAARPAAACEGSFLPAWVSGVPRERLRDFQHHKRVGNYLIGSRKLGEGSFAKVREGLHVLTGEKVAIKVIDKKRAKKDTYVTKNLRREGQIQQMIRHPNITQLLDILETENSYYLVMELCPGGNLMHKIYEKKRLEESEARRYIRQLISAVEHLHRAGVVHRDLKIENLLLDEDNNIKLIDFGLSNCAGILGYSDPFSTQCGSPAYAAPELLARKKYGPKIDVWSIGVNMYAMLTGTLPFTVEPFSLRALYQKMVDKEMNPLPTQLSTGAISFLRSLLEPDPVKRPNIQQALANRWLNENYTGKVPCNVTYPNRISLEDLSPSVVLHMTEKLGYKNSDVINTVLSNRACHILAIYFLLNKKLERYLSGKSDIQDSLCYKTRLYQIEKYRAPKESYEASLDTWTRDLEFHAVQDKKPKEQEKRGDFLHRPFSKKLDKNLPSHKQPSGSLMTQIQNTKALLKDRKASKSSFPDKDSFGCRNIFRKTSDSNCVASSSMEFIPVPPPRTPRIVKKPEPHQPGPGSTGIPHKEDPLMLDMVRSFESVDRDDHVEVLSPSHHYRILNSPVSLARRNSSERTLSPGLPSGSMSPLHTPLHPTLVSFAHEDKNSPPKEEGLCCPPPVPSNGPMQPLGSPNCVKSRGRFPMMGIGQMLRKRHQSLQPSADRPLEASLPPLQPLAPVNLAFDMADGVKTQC

MAPK9 (human), sequence (P45984 whole entry, looked up): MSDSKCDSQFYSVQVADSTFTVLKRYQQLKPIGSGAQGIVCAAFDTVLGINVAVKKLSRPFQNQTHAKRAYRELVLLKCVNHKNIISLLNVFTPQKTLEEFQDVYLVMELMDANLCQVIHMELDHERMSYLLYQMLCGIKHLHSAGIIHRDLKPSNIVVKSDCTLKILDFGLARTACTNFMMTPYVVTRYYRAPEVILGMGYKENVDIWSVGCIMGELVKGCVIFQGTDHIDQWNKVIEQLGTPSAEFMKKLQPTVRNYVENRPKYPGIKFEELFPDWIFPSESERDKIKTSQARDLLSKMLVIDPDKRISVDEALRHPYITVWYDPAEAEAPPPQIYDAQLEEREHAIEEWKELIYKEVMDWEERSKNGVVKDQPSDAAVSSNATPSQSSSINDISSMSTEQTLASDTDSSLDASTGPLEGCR
FER (human), sequence (P16591 whole entry, looked up): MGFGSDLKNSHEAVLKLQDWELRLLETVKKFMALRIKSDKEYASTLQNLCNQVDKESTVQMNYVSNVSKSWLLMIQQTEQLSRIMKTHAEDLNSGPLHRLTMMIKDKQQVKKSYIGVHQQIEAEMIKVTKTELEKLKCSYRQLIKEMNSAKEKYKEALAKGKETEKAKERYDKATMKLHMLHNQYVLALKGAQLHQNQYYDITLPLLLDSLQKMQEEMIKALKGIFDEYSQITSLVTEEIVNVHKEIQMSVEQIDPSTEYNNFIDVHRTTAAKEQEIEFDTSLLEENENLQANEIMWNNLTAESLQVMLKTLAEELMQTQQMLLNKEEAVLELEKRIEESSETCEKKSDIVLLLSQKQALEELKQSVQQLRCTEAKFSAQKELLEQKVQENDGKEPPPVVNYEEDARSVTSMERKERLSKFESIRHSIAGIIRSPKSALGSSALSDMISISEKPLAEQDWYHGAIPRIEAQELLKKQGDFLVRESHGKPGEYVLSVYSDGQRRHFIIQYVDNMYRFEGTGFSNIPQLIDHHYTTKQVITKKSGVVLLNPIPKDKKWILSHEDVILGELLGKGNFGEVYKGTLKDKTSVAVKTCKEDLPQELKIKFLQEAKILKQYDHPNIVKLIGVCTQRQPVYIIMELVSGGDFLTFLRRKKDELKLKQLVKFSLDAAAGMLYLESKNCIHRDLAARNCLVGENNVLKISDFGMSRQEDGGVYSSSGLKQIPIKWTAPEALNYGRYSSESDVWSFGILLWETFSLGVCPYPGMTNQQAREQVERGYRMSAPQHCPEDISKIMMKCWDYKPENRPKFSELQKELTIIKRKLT

pKd [1]: 8.52 | pKd (FER (human)): 6.70 | pKd (NTRK3 (human)): 5.66 | pKd (SIK2 (human)): 4.62 | pKd (CSK (human)): 6.15 | pKd (MAPK9 (human)): 8.39 | pKd (CDK8 (human)): 5.96 | pKd (ROS1 (human)): 5.60 | pKd (STK25 (human)): 4.72 | pKd (BLK (human)): 8.12 | pKd (RIOK2 (human)): 4.44 | pKd (PTK6 (human)): 6.70 | pKd (ADCK4 (human)): 4.59 | pKd (FGFR4 (human)): 6.35 | pKd (DDR2 (human)): 8.27 | pKd (IRAK3 (human)): 5.85 | pKd (EPHB1 (human)): 6.82 | pKd (MYO3A (human)): 4.82 | pKd (MLTK (human)): 8.09 | pKd (EPHA6 (human)): 8.26 | pKd (LYN (human)): 8.70 | pKd (MATK (human)): 4.59 | pKd (DYRK2 (human)): 4.57 | pKd (MAPK13 (human)): 6.41 | pKd (HIPK3 (human)): 6.92 | pKd (STK35 (human)): 6.33 | pKd (TSSK1B (human)): 4.59 | pKd (FYN (human)): 6.89 | pKd (MYLK3 (human)): 4.59 | pKd (EPHA3 (human)): 7.44 | pKd [2]: 4.43 | pKd (TEC (human)): 5.22 | pKd (STK10 (human)): 8.77 | pKd (CDK7 (human)): 6.28 | pKd (MAPK11 (human)): 7.82 | pKd (MAP2K2 (human)): 5.08 | pKd (PIK3CG (human)): 4.52 | pKd (MAP4K2 (human)): 6.01 | pKd (CDC42BPB (human)): 5.70 | pKd (CDKL5 (human)): 7.04 | pKd (HUNK (human)): 4.92
Structure (SMILES): COc1cc2ncnc(Oc3cccc(NC(=O)Nc4cc(C(C)(C)C(F)(F)F)on4)c3)c2cc1OC
